± gives the expanded uncertainty stated by the source.
Details: 298.2 K, 101.3 kPa, Buoyancy - hydrostatic balance

mass density (Metastable liquid) | SMILES | mass density (Liquid)
 | Cc1cc(C)cc(C)c1 [1,3,5-trimethylbenzene] | 864 ± 6 kg/m3
 | Cc1cccc(O)c1 [3-methylphenol] | 1034.5 ± 6 kg/m3
 | CC(=O)CC(C)C [4-methylpentan-2-one] | 799.8 ± 6 kg/m3
1034.4 ± 6 kg/m3 | Cc1ccc(O)cc1 [4-methylphenol] | 
 | CCCCOC(C)=O [butyl ethanoate] | 882.2 ± 6 kg/m3
 | CO [methanol] | 791 ± 6 kg/m3
 | O [water] | 997.2 ± 6 kg/m3

Reference: the NIST ThermoML archive (doi:10.1021/acs.jced.6b00513)
